{
  "source": "PubChem BioAssay (NCI)",
  "assay_in_all_cases": "NCI-60 cell line screen, 48 h",
  "key": {"[1]": {"test_system": "786-0 renal"}, "[2]": {"test_system": "BT-549 breast"}, "[3]": {"test_system": "CAKI-1 renal"}, "[4]": {"test_system": "COLO 205 colon"}, "[5]": {"test_system": "EKVX NSCLC"}, "[6]": {"test_system": "HCC-2998 colon"}, "[7]": {"test_system": "HOP-18 NSCLC"}, "[8]": {"test_system": "HS 578T breast"}, "[9]": {"test_system": "HT29 colon"}, "[10]": {"test_system": "KM20L2 colon"}, "[11]": {"test_system": "OVCAR-4 ovarian"}, "[12]": {"test_system": "OVCAR-5 ovarian"}, "[13]": {"test_system": "SK-MEL-28 melanoma"}, "[14]": {"test_system": "SK-OV-3 ovarian"}, "[15]": {"test_system": "SNB-78 CNS"}, "[16]": {"test_system": "T-47D breast"}, "[17]": {"test_system": "TK-10 renal"}, "[18]": {"test_system": "UO-31 renal"}, "[19]": {"test_system": "A498 renal"}, "[20]": {"test_system": "A549 NSCLC"}, "[21]": {"test_system": "ACHN renal"}, "[22]": {"test_system": "CCRF-CEM leukemia"}, "[23]": {"test_system": "DU-145 prostate"}, "[24]": {"test_system": "HCT-116 colon"}, "[25]": {"test_system": "HCT-15 colon"}, "[26]": {"test_system": "HL-60(TB) leukemia"}, "[27]": {"test_system": "HOP-62 NSCLC"}, "[28]": {"test_system": "HOP-92 NSCLC"}, "[29]": {"test_system": "IGROV1 ovarian"}, "[30]": {"test_system": "K-562 leukemia"}, "[31]": {"test_system": "KM12 colon"}, "[32]": {"test_system": "LOX IMVI melanoma"}, "[33]": {"test_system": "M14 melanoma"}, "[34]": {"test_system": "MALME-3M melanoma"}, "[35]": {"test_system": "MCF7 breast"}, "[36]": {"test_system": "MDA-MB-231 breast"}, "[37]": {"test_system": "MDA-MB-435"}, "[38]": {"test_system": "MDA-N"}, "[39]": {"test_system": "MOLT-4 leukemia"}, "[40]": {"test_system": "NCI-H226 lung"}, "[41]": {"test_system": "NCI-H23 lung"}, "[42]": {"test_system": "NCI-H460 lung"}, "[43]": {"test_system": "NCI-H522 lung"}, "[44]": {"test_system": "NCI/ADR-RES ovarian"}, "[45]": {"test_system": "OVCAR-3 ovarian"}, "[46]": {"test_system": "OVCAR-8 ovarian"}, "[47]": {"test_system": "PC-3 prostate"}, "[48]": {"test_system": "RPMI-8226 leukemia"}, "[49]": {"test_system": "RXF 393 renal"}, "[50]": {"test_system": "SF-268 CNS"}, "[51]": {"test_system": "SF-295 CNS"}, "[52]": {"test_system": "SF-539 CNS"}, "[53]": {"test_system": "SK-MEL-2 melanoma"}, "[54]": {"test_system": "SK-MEL-5 melanoma"}, "[55]": {"test_system": "SN12C renal"}, "[56]": {"test_system": "SNB-19 CNS"}, "[57]": {"test_system": "SNB-75 CNS"}, "[58]": {"test_system": "SR leukemia"}, "[59]": {"test_system": "SW-620 colon"}, "[60]": {"test_system": "U251 CNS"}, "[61]": {"test_system": "UACC-257 melanoma"}, "[62]": {"test_system": "UACC-62 melanoma"}},
  "note": "Several values for one entry are separate records, joined by “and”; a condition that tells them apart may be missing. Identical values can stand only once.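 Results reflect a 48-hour exposure of cells in 96-well plates to compound at five concentrations. The concentration for 50% growth inhibition is given as GI50. Definition used: TGI = concentration required for complete inhibition of growth.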",
  "data": [
    {"smiles": "COc1ccc(/C=C\\c2cc(OC)c(OC)c(OC)c2)cc1O", "values": [
      {"measurement": "TGI", "setting": "[1]", "result": 25.5, "unit": "µM"},
      {"measurement": "TGI", "setting": "[2]", "result": "> 100", "unit": "µM"},
      {"measurement": "TGI", "setting": "[3]", "result": "13.9 µM and > 59.5 µM"},
      {"measurement": "GI50", "setting": "[4]", "result": 2.49, "unit": "µM"},
      {"measurement": "TGI", "setting": "[4]", "result": "43.3 µM and 22.1 µM"},
      {"measurement": "TGI", "setting": "[5]", "result": 82.1, "unit": "µM"},
      {"measurement": "TGI", "setting": "[6]", "result": "1.22 µM and 2.38 µM"},
      {"measurement": "TGI", "setting": "[7]", "result": "> 100", "unit": "µM"},
      {"measurement": "TGI", "setting": "[8]", "result": 8.09, "unit": "µM"},
      {"measurement": "GI50", "setting": "[9]", "result": 0.664, "unit": "µM"},
      {"measurement": "TGI", "setting": "[9]", "result": "9.28 µM and > 44.9 µM"},
      {"measurement": "TGI", "setting": "[10]", "result": "8.28 µM and 16.2 µM"},
      {"measurement": "GI50", "setting": "[11]", "result": 6.58, "unit": "µM"},
      {"measurement": "GI50", "setting": "[12]", "result": 4.27, "unit": "µM"},
      {"measurement": "TGI", "setting": "[12]", "result": "78.6 µM and > 91.4 µM"},
      {"measurement": "GI50", "setting": "[13]", "result": 3.16, "unit": "µM"},
      {"measurement": "TGI", "setting": "[14]", "result": "< 0.031", "unit": "µM"},
      {"measurement": "GI50", "setting": "[15]", "result": "0.00409 µM and < 0.001 µM"},
      {"measurement": "TGI", "setting": "[15]", "result": "> 100", "unit": "µM"},
      {"measurement": "GI50", "setting": "[16]", "result": 48, "unit": "µM"},
      {"measurement": "TGI", "setting": "[16]", "result": 91.2, "unit": "µM"},
      {"measurement": "GI50", "setting": "[17]", "result": "2.63 µM and 0.567 µM"},
      {"measurement": "TGI", "setting": "[17]", "result": 4.16, "unit": "µM"},
      {"measurement": "TGI", "setting": "[18]", "result": "> 88.6", "unit": "µM"}
    ]},
    {"smiles": "CCCCCCCCCCCCCC(=O)N(CCCCCCCCC)CC(O)C(O)C(OC1OC(CO)C(O)C(O)C1O)C(O)CO", "note": "(stereo not drawn)", "values": [
      {"measurement": "TGI", "setting": "[1]", "result": 32, "unit": "µM"},
      {"measurement": "TGI", "setting": "[19]", "result": 35.9, "unit": "µM"},
      {"measurement": "TGI", "setting": "[20]", "result": 50.5, "unit": "µM"},
      {"measurement": "TGI", "setting": "[21]", "result": 30.5, "unit": "µM"},
      {"measurement": "TGI", "setting": "[2]", "result": 43.7, "unit": "µM"},
      {"measurement": "TGI", "setting": "[3]", "result": 30.6, "unit": "µM"},
      {"measurement": "TGI", "setting": "[22]", "result": 45.4, "unit": "µM"},
      {"measurement": "TGI", "setting": "[4]", "result": 37.3, "unit": "µM"},
      {"measurement": "TGI", "setting": "[23]", "result": 30.6, "unit": "µM"},
      {"measurement": "TGI", "setting": "[5]", "result": 34.5, "unit": "µM"},
      {"measurement": "TGI", "setting": "[6]", "result": 33.7, "unit": "µM"},
      {"measurement": "TGI", "setting": "[24]", "result": 32.1, "unit": "µM"},
      {"measurement": "TGI", "setting": "[25]", "result": 49.7, "unit": "µM"},
      {"measurement": "TGI", "setting": "[26]", "result": 48.7, "unit": "µM"},
      {"measurement": "TGI", "setting": "[27]", "result": 47.4, "unit": "µM"},
      {"measurement": "TGI", "setting": "[28]", "result": 34, "unit": "µM"},
      {"measurement": "TGI", "setting": "[8]", "result": 51.9, "unit": "µM"},
      {"measurement": "TGI", "setting": "[9]", "result": 33.3, "unit": "µM"},
      {"measurement": "TGI", "setting": "[29]", "result": 38.1, "unit": "µM"},
      {"measurement": "TGI", "setting": "[30]", "result": 39.4, "unit": "µM"},
      {"measurement": "TGI", "setting": "[31]", "result": 37.1, "unit": "µM"},
      {"measurement": "TGI", "setting": "[32]", "result": 39.6, "unit": "µM"},
      {"measurement": "TGI", "setting": "[33]", "result": 40.8, "unit": "µM"},
      {"measurement": "TGI", "setting": "[34]", "result": 35.7, "unit": "µM"},
      {"measurement": "TGI", "setting": "[35]", "result": "> 100", "unit": "µM"},
      {"measurement": "TGI", "setting": "[36]", "result": 37.2, "unit": "µM"},
      {"measurement": "TGI", "setting": "[37]", "result": 34.6, "unit": "µM"},
      {"measurement": "TGI", "setting": "[38]", "result": 38.1, "unit": "µM"},
      {"measurement": "TGI", "setting": "[39]", "result": 44.9, "unit": "µM"},
      {"measurement": "TGI", "setting": "[40]", "result": 34.3, "unit": "µM"},
      {"measurement": "TGI", "setting": "[41]", "result": 41.5, "unit": "µM"},
      {"measurement": "TGI", "setting": "[42]", "result": 39.1, "unit": "µM"},
      {"measurement": "TGI", "setting": "[43]", "result": 44.4, "unit": "µM"},
      {"measurement": "TGI", "setting": "[44]", "result": 37.7, "unit": "µM"},
      {"measurement": "TGI", "setting": "[45]", "result": 53.1, "unit": "µM"},
      {"measurement": "TGI", "setting": "[11]", "result": 46.6, "unit": "µM"},
      {"measurement": "TGI", "setting": "[12]", "result": "> 100", "unit": "µM"},
      {"measurement": "TGI", "setting": "[46]", "result": 39.3, "unit": "µM"},
      {"measurement": "TGI", "setting": "[47]", "result": 54.6, "unit": "µM"},
      {"measurement": "TGI", "setting": "[48]", "result": 52.1, "unit": "µM"},
      {"measurement": "TGI", "setting": "[49]", "result": 54.9, "unit": "µM"},
      {"measurement": "TGI", "setting": "[50]", "result": 39.4, "unit": "µM"},
      {"measurement": "TGI", "setting": "[51]", "result": 41.2, "unit": "µM"},
      {"measurement": "TGI", "setting": "[52]", "result": 51.3, "unit": "µM"},
      {"measurement": "TGI", "setting": "[53]", "result": 59, "unit": "µM"},
      {"measurement": "TGI", "setting": "[13]", "result": 33.6, "unit": "µM"},
      {"measurement": "TGI", "setting": "[54]", "result": 34.7, "unit": "µM"},
      {"measurement": "TGI", "setting": "[14]", "result": 30.8, "unit": "µM"},
      {"measurement": "TGI", "setting": "[55]", "result": 37.1, "unit": "µM"},
      {"measurement": "TGI", "setting": "[56]", "result": 44, "unit": "µM"},
      {"measurement": "TGI", "setting": "[57]", "result": 37.3, "unit": "µM"},
      {"measurement": "TGI", "setting": "[58]", "result": 46.2, "unit": "µM"},
      {"measurement": "TGI", "setting": "[59]", "result": 36.5, "unit": "µM"},
      {"measurement": "TGI", "setting": "[16]", "result": 39.7, "unit": "µM"},
      {"measurement": "TGI", "setting": "[17]", "result": 33.7, "unit": "µM"},
      {"measurement": "TGI", "setting": "[60]", "result": 38.6, "unit": "µM"},
      {"measurement": "TGI", "setting": "[61]", "result": 32.1, "unit": "µM"},
      {"measurement": "TGI", "setting": "[62]", "result": 38.2, "unit": "µM"},
      {"measurement": "TGI", "setting": "[18]", "result": 34.5, "unit": "µM"}
    ]}
  ]
}
